In patent publication US20230303623A1, “PEPTIDES AND METHODS OF USE” (REALTA LIFE SCIENCES, INC., priority 2020, published 2023):
Entries after “also recorded” stand apart in the source; their conditions may differ.

Assays:
[1] = test system: antibody-initiated complement activation (lysis of AB human red blood cells by type O serum); assay: ABO incompatibility hemolytic complement assay (CH50-type); type: cell-based; conditions: peptides 0.8 mg/ml (~0.5 mM), compared to parent peptide
Experimental: FIG. 1A-1B show PIC1 peptides' inhibition of complement activation in an ABO incompatibility assay. […] Inhibition of ABO incompatibility hemolysis in a CH50-type assay. Peptides are at a final concentration of 0.5 mM. Values are represented as a percent of the positive control, which consists of human 0 sera and AB red blood cells in GVBS^++ buffer. Data are the means of n=3 independent experiments±SEM.
For hemolytic complement assays, human red blood cells (RBCs) from type AB donors were purified, washed, and standardized to 1.0×10^9 cells/ml, as previously described. Human sera from type 0 donors at a 15% final concentration was combined with 0.5 mM of the peptides and the volume was brought up to 0.2 ml with GVBS^++ and 5.0×10^7 RBCs. The samples were incubated for 1 hour at 37° C. and then spun at 3,000 rpm for 5 minutes and the supernatant was collected and read at 412 nm. Values are represented as a percent of the positive control, which consists of human 0 sera and AB red blood cells in GVBS^++ buffer.
To assess the extent to which the peptide variants inhibit antibody-initiated complement activation, an ABO incompatibility ex vivo assay was utilized in which purified erythrocytes from a ‘type AB+’ donor are incubated with sera from a ‘type 0’ subject containing anti-A and anti-B antibodies. Peptides were tested at a concentration of 0.8 mg/ml (˜0.5 mM).

[2] = Total Antioxidant Capacity (TAC) assay; conditions: highest peptide concentration 1.5 mM; compared to parent peptide
How it was run: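 Copper(II)-to-copper(I) reduction kit used per manufacturer to measure antioxidant capacity of PIC1 peptide variants over a concentration range; activity reported at the highest peptide concentration, 1.5 mM.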

[3] = test system: purified human Pan T-cells; assay: T-cell exhaustion protocol (repeated CD3/CD28 Dynabead stimulation); type: cell-based; conditions: ELISA, listed as RLS-0122
Experimental: Purified human pan-T-cells were subject to stimulation with Dynabeads every 48 hours over the period of 8 days with cells also receiving PIC1 peptides (2 mg/ml) at each stimulation. Cells not receiving Dynabeads were run in parallel to assess background levels of Caspase 3/7 signal. At the eighth day, cells were harvested, and the levels of Caspase 3/7 determined by ELISA.
Purified human pan-T-cells were subject to stimulation with Dynabeads every 48 hours over the period of 8 days with cells also receiving PIC1 peptides (2 mg/ml) at each stimulation. Cell supernatants were collected at each stimulation and levels of IL-2 and IFN-gamma assayed by ELISA.
T-cell exhaustion is a form of T-cell dysfunction that occurs in cancer. It is generally defined by poor effector function, reduction in cytokine release (e.g., IL-2, TNF-alpha, IFN-gamma), sustained expression of inhibitory receptors (e.g., PD-1, LAG-3, CD244, CD160) with the progressive loss of effector function due to overstimulation. Exhaustion can prevent optimal control of tumor growth. Exhausted T cells are prevalent in the tumor microenvironment (TME) and can lead to T-cell apoptosis. T-cell exhaustion is reversible and pharmaceutical inhibition of T-cell exhaustion has been considered a promising strategy by many cancer researchers. To ascertain if PIC1 peptides could reverse T-cell exhaustion and increase T cell viability and effector function, a T-cell exhaustion protocol was developed. To induce T-cell exhaustion, purified human Pan T-cells were stimulated with T-Activator CD3/CD28 Dynabeads and cells were washed and re-stimulated every 48 hours. PIC1 peptides were added to the cells after each stimulation with Dynabeads. After three to four stimulations, cells were harvested for readouts which consisted of assessing T-cell apoptosis by measuring Caspase 3/7 levels and production of cytokines IL-2 and IFN-gamma, which are indicative of T-cell functionality. […] To further evaluate if PIC1 peptides could restore T-cell functionality in cells that have undergone the exhaustion protocol, the inventors next assessed production of cytokines IL-2 and IFN-gamma. Supernatants from the cells after each stimulation was collected and the cytokines measured by ELISA. […] The lower level of IFN-gamma signal was consistently seen in this assay.

CTLA-4 = biological target: T1, CTLA-4 (Homo sapiens, UniProt P16410); assay: CTLA-4 Blockade Bioassay (Promega); type: cell-based; parameters: host or cells: Jurkat T cells (CTLA-4 effector cells) co-cultured with aAPC/Raji cells; conditions: increasing concentrations; listed as RLS-0122
T1 sequence (P16410 36-223): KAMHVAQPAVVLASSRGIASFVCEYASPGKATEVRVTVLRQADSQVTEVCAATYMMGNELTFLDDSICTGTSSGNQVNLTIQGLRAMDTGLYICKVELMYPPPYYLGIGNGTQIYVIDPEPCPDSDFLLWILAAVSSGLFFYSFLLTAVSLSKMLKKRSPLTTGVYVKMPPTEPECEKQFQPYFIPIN
Experimental: CTLA-4 effector cells were incubated with aAPC/Raji Cells in the absence or presence of increasing concentrations of anti-CTLA-4 antibody (positive control), RLS-0122, RLS-0150, RLS-0154, RLS-0164 and RLS-0168 and RLS-0088 (negative control). Luminescence was detected in luminometer plate reader. The drop-off in signal with the test peptides at high concentrations is due to cell death as a result of peptide buffer effects on the cells.
To assess if PIC1 peptides could block CTLA-4 inhibitory activity in a cell-based assay, select peptides were screened in the CTLA-4 Blockade Bioassay (Promega). This bioluminescent cell-based assay can be used to measure the potency and stability of molecules targeting CTLA-4 and consists of two genetically engineered cell lines: CTLA-4 effector cells: Jurkat T cells expressing human CTLA-4 and a luciferase reporter driven by a native promoter which responds to TCR/CD28 activation and aAPC/Raji Cells: Raji cells expressing an engineered cell surface protein designed to activate cognate TCRs in an antigen-independent manner and endogenously expressing CTLA-4 ligands CD80 and CD86. When the two cell types are co-cultured, CTLA-4 competes with CD28 for their shared ligands, CD80 and CD86 and thus inhibits CD28 pathway activation and promoter-mediated luminescence. Addition of a molecule that blocks the interaction of CTLA-4 with its ligands CD80 and CD86 results in promoter-mediated luminescence.

[4] = peptides 2 mg/ml, stimulation 2

IAdLILEP(Sar)CCQERAA (IALILEPXCCQERAA; D-Leu; sarcosine; MOD_RES (3)..(3) D-amino acid; MOD_RES (8)..(8) Sarcosine) [PA-0122]
inhibition of ABO incompatible hemolysis (complement inhibition), in words [1]: greater extent | inhibition of ABO incompatible hemolysis (complement inhibition), in words ([1]; listed as RLS-0122): potently block complement activation | total antioxidant capacity, in words [2]: slight increase in total antioxidant capacity | Caspase 3/7 levels, in words ([3]; peptides 2 mg/ml at each stimulation, day 8): very low to undetectable levels; also recorded: reduced levels | IFN-gamma levels in cell supernatants, in words [3, 4]: detectable at stimulation 2; also recorded: increased levels | IL-2 levels in cell supernatants, in words [3, 4]: detectable IL-2 at stimulation 2; also recorded: increased levels | inhibition of CTLA-4 mediated cell signaling (increase in luminescence), in words (CTLA-4): showed inhibitory activity; also recorded: able to inhibit CTLA-4 mediated cell signaling
